Results taken from PMC5471252, “Anti-leukemia activity of a Hsp70 inhibitor and its hybrid molecules” (Scientific Reports, 2017).

Key:
[1] = system: human leukemia cells (HL-60, KG-1, THP-1, U937, Jurkat and K562 cells); test: MTT assay, all tested leukemia cells (summary statements); details: all tested leukemia cells, MTT, compared with Az, GD and imatinib
Protocol: To assess anti-leukemia activity of Az, several human leukemia cells (HL-60 cells, acute myeloid leukemia; Jurkat cells, acute T-lymphocytic leukemia; KG-1 cells, acute myeloid leukemia; U937 cells, acute myeloid leukemia; THP-1 cells, acute monocytic leukemia; K562 cells, chronic myeloid leukemia) were incubated with Az for 48 h. […] An MTT assay was then performed to measure cell viabilities.
Cells were exposed to each compound (a HCl salt form) at various concentrations for indicated time periods (24 or 48 h) in culture media. MTT assays were conducted according to known procedures. The absorbance at 570 nm was determined by employing a microplate reader (TECAN, Infinite® 200 PRO).

ATPase domain of Hsp70 = target: T1, ATPase domain of Hsp70 (Homo sapiens, UniProt P0DMV8); test: PiColorLock ATPase assay, Hsp70; format: biochemical; details: 10, 20 and 40 µM compound, 10 µM ATP, compared with Az
T1 construct: mixed with 2 µg of an ATPase domain of Hsp70
T1 sequence (P0DMV8 2-386 limits assumed): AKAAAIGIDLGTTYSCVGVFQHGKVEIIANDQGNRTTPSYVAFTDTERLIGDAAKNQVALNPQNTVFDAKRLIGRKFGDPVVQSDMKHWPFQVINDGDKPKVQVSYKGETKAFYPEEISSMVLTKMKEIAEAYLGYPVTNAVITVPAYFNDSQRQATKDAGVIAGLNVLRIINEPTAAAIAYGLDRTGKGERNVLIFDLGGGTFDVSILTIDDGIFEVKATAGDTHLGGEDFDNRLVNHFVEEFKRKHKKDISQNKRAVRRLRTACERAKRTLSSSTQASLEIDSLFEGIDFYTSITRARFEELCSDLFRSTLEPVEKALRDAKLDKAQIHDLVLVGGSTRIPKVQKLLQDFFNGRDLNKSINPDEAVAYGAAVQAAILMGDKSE
Protocol: (§1) Inhibition by the hybrids on the ATPase activities of Hsp70 and Hsp90 was determined by using a PiColorLock assay and on the kinase activity of Abl by using a radiometric assay.
ATPase assays. ATPase assays were conducted in 20 mM Tris-HCl, 10 mM MgCl2 and 100 mM KCl buffer solution mixed with 2 µg of an ATPase domain of Hsp70. Each compound (10, 20 and 40 µM) was added to the protein solution in a 96-well plate. After the mixture was placed in the plate for 30 min at room temperature, 10 µM ATP was added to the mixture and the mixture was incubated for 3 h at 37 °C. To measure ATPase activity, 10 µl of a 1:100 mixture of PiColorLock Gold reagent (Innova Biosciences) and an accelerator was added to each well. After 5 min at room temperature, 4 µL of a stabilizer was added to the mixture and then incubated for additional 30 min before taking measurement. The absorbance at 620nm was measured by using an Infinite® 200 PRO multimode microplate reader. The same procedure was used to measure ATPase activity of Hsp90 except concentrations of protein (1 µg) and ATP (1 mM).
(§2) Supplementary Figure S10. Inhibitory effect of hybrid molecules on Hsp70, Hsp90 and Abl activities. (a) ATPase activity of Hsp70 was measured by using a Pi-Colorlock assay after incubation of an ATPase domain of Hsp70 with various concentrations of indicated molecules and 10 µM ATP (mean ± s.d., n =3). (b) ATPase activity of Hsp90 was measured by using a Pi-Colorlock assay after incubation of Hsp90 with various concentrations of indicated molecules and 1 mM ATP (mean ± s.d., n = 3). (c) Abl kinase activity was measured by using a radiometric kinase assay after incubation of Abl with a peptide substrate in the presence of various concentrations of indicated molecules and γ-^33P-ATP (mean ± s.d., n =3).

HL-60 cells = test: MTT assay, cell viability of HL-60 cells; format: cell-based; details: Homo sapiens, 48 h, mean ± s.d., n = 3, read-out: IC50 values of compounds for leukemia cells
KG-1 cells = test: MTT assay, cell viability of KG-1 cells; format: cell-based; details: Homo sapiens, 48 h, mean ± s.d., n = 3, read-out: IC50 values of compounds for leukemia cells
THP-1 cells = test: MTT assay, cell viability of THP-1 cells; format: cell-based; details: Homo sapiens, 48 h, mean ± s.d., n = 3, read-out: IC50 values of compounds for leukemia cells
U937 cells = test: MTT assay, cell viability of U937 cells; format: cell-based; details: Homo sapiens, U-937, 48 h, mean ± s.d., n = 3, read-out: IC50 values of compounds for leukemia cells
Jurkat cells = test: MTT assay, cell viability of Jurkat cells; format: cell-based; details: Homo sapiens, 48 h, mean ± s.d., n = 3, read-out: IC50 values of compounds for leukemia cells
K562 cells = test: MTT assay, cell viability of K562 cells; format: cell-based; details: Homo sapiens, 48 h, mean ± s.d., n = 3, read-out: IC50 values of compounds for leukemia cells
HL-60 and K562 cells = test: Flow cytometry, fluorescein-annexin V and PI staining; format: cell-based, human; details: 24 h; 10 µM Az, 10 µM GD or 4 µM Az-O3-GD
Protocol: To determine whether Az promotes leukemia cell death via apoptosis, acute leukemia HL-60 and chronic leukemia K562 cells were independently incubated with Az. The treated cells were then exposed to a mixed solution of fluorescein-annexin V and propidium iodide (PI) and flow cytometry analysis was conducted. […] The size of the treated cells was also assessed by using flow cytometry. […] We also investigated if the mitochondrial membrane potential in cells treated with Az is disrupted. To test this possibility, HL-60 and K562 cells were exposed to Az and subsequently stained with a membrane potential sensitive JC-1 probe. […] This serves as another evidence for apoptosis induced by Az.
HL-60 and K562 cells were incubated with each compound for 24 h in culture media. Cells were re-suspended with 500 μL binding buffer (10 mM HEPES, […] and 2.5 mM CaCl2, pH 7.5) and then incubated with the FITC-annexin V apoptosis detection kit with PI according to the protocol provided by the manufacturer. Flow cytometry was carried out by using a BD FACSVerse™ instrument (BD Biosciences) and the data were analyzed by using a FlowJo™ software (BD Biosciences).

human recombinant Abl = target: T2, human recombinant Abl (Homo sapiens, UniProt P00519); test: Radiometric Abl kinase assay; format: biochemical; details: compared with imatinib
T2 construct: purchased Eurofins Pharma Discovery Services (UK Limited); host or cells: insect cells
T2 sequence (P00519 whole entry): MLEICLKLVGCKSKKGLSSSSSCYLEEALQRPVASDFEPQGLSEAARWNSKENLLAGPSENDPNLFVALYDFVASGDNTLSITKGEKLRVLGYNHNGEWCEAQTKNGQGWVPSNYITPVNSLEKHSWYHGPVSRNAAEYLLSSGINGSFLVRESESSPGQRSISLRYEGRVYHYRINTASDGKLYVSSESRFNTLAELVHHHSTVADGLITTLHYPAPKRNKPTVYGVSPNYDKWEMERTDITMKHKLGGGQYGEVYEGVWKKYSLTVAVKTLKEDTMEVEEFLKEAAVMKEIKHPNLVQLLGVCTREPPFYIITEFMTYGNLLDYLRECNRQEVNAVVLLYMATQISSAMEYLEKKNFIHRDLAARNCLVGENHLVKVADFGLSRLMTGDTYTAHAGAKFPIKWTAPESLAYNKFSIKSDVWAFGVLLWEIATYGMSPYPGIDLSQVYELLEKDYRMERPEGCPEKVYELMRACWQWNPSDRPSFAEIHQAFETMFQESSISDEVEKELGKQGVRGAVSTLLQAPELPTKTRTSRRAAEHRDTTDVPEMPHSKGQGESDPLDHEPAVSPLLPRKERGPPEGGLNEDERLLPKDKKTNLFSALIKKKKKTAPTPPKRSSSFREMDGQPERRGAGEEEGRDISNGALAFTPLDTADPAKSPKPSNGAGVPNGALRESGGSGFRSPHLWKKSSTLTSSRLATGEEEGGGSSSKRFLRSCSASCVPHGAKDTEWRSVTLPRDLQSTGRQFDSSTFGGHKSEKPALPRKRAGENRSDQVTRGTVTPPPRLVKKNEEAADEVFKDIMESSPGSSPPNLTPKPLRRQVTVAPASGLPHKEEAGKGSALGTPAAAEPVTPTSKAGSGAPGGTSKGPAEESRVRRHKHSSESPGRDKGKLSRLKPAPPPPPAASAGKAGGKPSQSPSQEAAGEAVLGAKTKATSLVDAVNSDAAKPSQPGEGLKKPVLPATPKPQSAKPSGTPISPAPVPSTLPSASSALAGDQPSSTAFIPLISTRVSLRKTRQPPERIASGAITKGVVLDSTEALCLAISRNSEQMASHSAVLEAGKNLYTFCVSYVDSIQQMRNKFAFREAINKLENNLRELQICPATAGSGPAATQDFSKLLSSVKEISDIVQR
Protocol: as §1
Abl kinase assays. Abl kinase assays were conducted by Eurofins Pharma Discovery Services (UK Limited). Briefly, each compound was pre-incubated with 0.25 µg/mL of human recombinant Abl (expressed in insect cells) in 20 mM MOPS containing 1 mM EDTA, 0.01% Brij-35, 5% glycerol, 0.1% β-mercaptoethanol and 1 mg/mL BSA for 15 min at 37 °C. To the enzyme mixture was added 0.2 mg/mL of poly(Glu:Tyr), 10 µM ATP and 0.25 µCi [γ^33P]ATP. After incubation for 30 min, 3% H3PO4 was added to the mixture to stop enzyme reactions. An aliquot was removed and counted to determine the amount of [^33P]poly(Glu:Tyr) formed by using a Trilux scintillation counter (Wallac Microbeta 12-detector model, Perkin Elmer).
as §2, with “(c) Abl kinase activity was measured by using a radiometric kinase assay after incubation of Abl with a peptide substrate in the presence of various concentrations of indicated molecules and γ-^33P-ATP (mean ± s.d., n =3).” left out

SMILES	cytotoxicity relative to the individual inhibitors [1]	inhibition of the ATPase activity of Hsp70 (ATPase domain of Hsp70)	IC50 (HL-60 cells) [µM]	IC50 (KG-1 cells) [µM]	IC50 (THP-1 cells) [µM]	IC50 (U937 cells) [µM]	IC50 (Jurkat cells) [µM]	IC50 (K562 cells) [µM]	apoptosis, annexin V binding and PI uptake (HL-60 and K562 cells)	inhibitory activity towards Abl kinase (human recombinant Abl)
COc1ccc(-c2nc(-c3cc(C(F)(F)F)cc(C(F)(F)F)c3)n(Cc3ccc(C(=O)NCCOCCOCCNC(=O)COCCOCCOCCNC4=C5C[C@@H](C)C[C@H](OC)[C@H](O)[C@@H](C)/C=C(\C)[C@H](OC(N)=O)[C@@H](OC)/C=C\C=C(/C)C(=O)NC(=CC4=O)C5=O)cc3)c2-c2ccc(OC)cc2)cc1 [Az-amide-GD]	poorer cytotoxicity	lower inhibitory activity towards Hsp70 than Az	–	–	–	–	–	–	–	–
COc1ccc(-c2nc(-c3cc(C(F)(F)F)cc(C(F)(F)F)c3)n(Cc3ccc(C(=O)NCCOCCOCCNC4=C5C[C@@H](C)C[C@H](OC)[C@H](O)[C@@H](C)/C=C(\C)[C@H](OC(N)=O)[C@@H](OC)/C=C\C=C(/C)C(=O)NC(=CC4=O)C5=O)cc3)c2-c2ccc(OC)cc2)cc1 [Az-GD]	greatly enhanced cytotoxicities	–	0.73 ± 0.22	0.91 ± 0.41	0.36 ± 0.12	1.12 ± 0.32	0.89 ± 0.25	0.63 ± 0.21	–	–
COC1=C2C[C@@H](C)C[C@H](OC)[C@H](O)[C@@H](C)/C=C(\C)[C@H](OC(N)=O)[C@@H](OC)/C=C\C=C(/C)C(=O)NC(=CC1=O)C2=O [GD, geldanamycin, reference compound]	–	–	2.3 ± 0.74	3.2 ± 1.21	0.9 ± 0.33	4.8 ± 1.22	4.8 ± 1.06	3.7 ± 1.11	induces apoptosis	–
COc1ccc(-c2nc(-c3cc(C(F)(F)F)cc(C(F)(F)F)c3)n(Cc3ccc(C(=O)NCCOCCOCCOCCN4CCN(Cc5ccc(C(=O)Nc6ccc(C)c(Nc7nccc(-c8cccnc8)n7)c6)cc5)CC4)cc3)c2-c2ccc(OC)cc2)cc1 [Az-O3-Imatinib]	poorer cytotoxicity	much weaker inhibitors of Hsp70 compared to Az	> 10	> 10	> 10	> 10	> 10	4.3 ± 0.91	–	significantly reduced inhibitory activities towards Abl kinase compared to imatinib
COc1ccc(-c2nc(-c3cc(C(F)(F)F)cc(C(F)(F)F)c3)n(Cc3ccc(C(=O)NCCOCCOCCOCCOCCN4CCN(Cc5ccc(C(=O)Nc6ccc(C)c(Nc7nccc(-c8cccnc8)n7)c6)cc5)CC4)cc3)c2-c2ccc(OC)cc2)cc1 [Az-O4-Imatinib]	poorer cytotoxicity	much weaker inhibitors of Hsp70 compared to Az	> 10	> 10	> 10	> 10	> 10	4.5 ± 0.88	–	significantly reduced inhibitory activities towards Abl kinase compared to imatinib
